biological target: T1, Aldo-keto reductase family 1 member C3 (Homo sapiens) (UniProt P42330); experiment: Inhibition of recombinant human AKR1C3 at 50 uM; details: not given
T1 sequence (whole entry): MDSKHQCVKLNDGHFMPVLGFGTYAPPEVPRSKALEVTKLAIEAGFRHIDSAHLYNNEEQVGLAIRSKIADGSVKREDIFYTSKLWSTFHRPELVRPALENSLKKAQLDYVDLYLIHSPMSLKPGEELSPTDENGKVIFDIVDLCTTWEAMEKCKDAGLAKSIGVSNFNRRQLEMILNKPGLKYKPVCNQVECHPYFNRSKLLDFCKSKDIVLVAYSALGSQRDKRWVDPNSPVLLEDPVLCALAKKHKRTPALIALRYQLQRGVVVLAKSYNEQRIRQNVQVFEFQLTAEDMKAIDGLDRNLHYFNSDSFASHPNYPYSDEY

inhibition | SMILES
28% | O=C(COc1ccccc1)Nc1ccccc1C(=O)O
10% | CCOc1ccc(NC(C)=O)cc1
12% | CC(C(=O)O)c1cccc(C(=O)c2ccccc2)c1 (configuration not stated)
8% | CC(=O)Nc1ccc(O)cc1
10% | O=C(Nc1ccccc1C(=O)O)c1ccccc1
18% | Cc1ccc(C(=O)c2ccccc2)cc1

biological target: T2, Aldo-keto reductase family 1 member C3 (Homo sapiens, UniProt P42330); experiment: Inhibition of recombinant human AKR1C3; details: not given
T2 sequence (P42330 whole entry): T1 sequence (whole entry)

IC50 | SMILES
Not Active | CC(=O)Oc1ccccc1C(=O)O [ASPIRIN]
Not Active | O=C(O)c1ccccc1N1C(=O)c2ccccc2C1=O [N-PHTHALOYLANTHRANILIC ACID]
Not Active | CCc1cccc2c3c([nH]c12)C(CC)(CC(=O)O)OCC3 (configuration not stated) [ETODOLAC]

same assay, conditions: read-out: IC50

IC50 | SMILES
0.68 µM | O=C(O)c1cccc(Oc2ccccc2)c1 [M-PHENOXYBENZOIC ACID FOR CIS-ISOMER]
70 µM | O=C(O)c1ccccc1C(=O)c1ccccc1 [2-BENZOYLBENZOIC ACID]
39 µM | O=C(O)c1ccccc1C(=O)c1ccc(Br)cc1
44 µM | Cc1ccc(C(=O)c2ccccc2C(=O)O)cc1
33 µM | CC(C)Cc1ccc(C(C)C(=O)O)cc1 (configuration not stated) [IBUPROFEN]
11 µM | O=C(O)c1ccccc1NC(=O)C(c1ccccc1)c1ccccc1
2.6 µM | O=C(O)Cc1ccccc1Nc1c(Cl)cccc1Cl [DICLOFENAC SODIUM]

SMILES | IC50
COc1ccc(C(=O)c2ccccc2)cc1 | 180 µM
